Consider 17 molecules from patent US8394786B2, “Quinazoline derivatives” (Janssen Pharmaceutica N.V., priority 2003, dated 2013).

The test system of one assay is SKOV3 cells. Briefly: Serum starved proliferation assay on the ovarian carcinoma SKOV3 cells (C3). Type of assay: cell-based. The note with it: EGF stimulated (100 ng/ml, 72 hours, serum free) or 72 hours with compounds, MTT cell viability assay; for IC50: Homo sapiens, SK-OV-3, 72 h, read-out: SKOV3 cell (C3): pIC50 (converted). Here is the method:
The ovarian carcinoma cell line (SKOV3) was used in an epidermal growth factor stimulated cell proliferation assay, to assess the inhibitory effect of the compounds on EGF in whole cells.
In a first step the SKOV3 cells were incubated for 24 hours in the presence of 10% FCS serum. In the second step the cells were incubated with the compounds to be tested in a serum free condition (37° C. and 5% (v/v) CO2) and subsequently stimulated for 72 hours with EGF at a final concentration of 100 ng/ml. The effect of the compounds on the EGF stimulation was finally assessed in a standard MTT cell viability assay.
Alternatively, the SKOV3 cells were incubated for 24 hours in the presence of 10% FCS serum. In the second step the cells were incubated for 72 hours with the compounds to be tested and the effect of the compounds on cell proliferation was finally assessed in a standard MTT cell viability assay.
(In general: Tetrazolium assays rely on reduction of a dye to a coloured formazan, in cell work by metabolically active cells.)

The next assay deals with EGFR (Homo sapiens, UniProt P00533). Briefly: In vitro inhibition of EGFR, Flash Plate or glass-fiber filter technology (C2). To be noted: EGFR-kinase domain, 5.0 μM unlabeled ATP, read-out: Kinase activity.(C2): pIC50 (converted). The arrangement: 0.5 μg EGFR-kinase domain/well. Type of assay: biochemical. Here is the method: The in vitro inhibition of EGFR was assessed using either the Flash Plate technology or the glass-fiber filter technology as described by Davies, S. P. et al., Biochem J. (2000), 351; p. 95-105. The Flash Plate technology is generally described by B. A. Brown et al. in High Throughput Screening (1997), p. 317-328. Editor(s): Devlin, John P. Publisher: Dekker, New York, N.Y.
In the Flash Plate EGFR kinase reaction assay, a kinase substrate consisting of biotinylated poly(L-glutamic acid-L-tyrosine) (poly(GT)biotin), is incubated with the aforementioned protein in the presence of (^33P) radiolabeled ATP. (^33P) phosphorylation of the substrate is subsequently measured as light energy emitted using a streptavidin-coated Flash Plate (PerkinElmer Life Sciences) by trapping and quantifying the binding of the biotin tagged and radiolabeled substrate.
The EGFR kinase reaction is performed at 30° C. for 60 minutes in a 96-well microtiter FlashPlate (PerkinElmer Life Sciences). For each of the tested compounds a full dose response 1·10^−6M to 1·10^−10M has been performed. IRESSA° and Tarceva™ (erlotinib) were used as reference compounds. The 100 μl reaction volume contains 54.5 mM TrisHCl pH 8.0, 10 mM MgCl2, 100 μM Na3VO4, 5.0 μM unlabeled ATP, 1 mM DTT, 0.009% BSA, 0.8 μCi AT^33P, 0.35 μg/well poly(GT)biotin and 0.5 μg EGFR-kinase domain/well.
The reaction is stopped by aspirating the reaction mixture and washing the plate 3× with 200 μl wash/stop buffer (PBS+100 mM EDTA). After the final wash step 200 μl of wash/stop buffer was added to each well and the amount of phosphorylated (^33P) Poly(GT)biotin determined by counting (30 sec/well) in a microtiterplate scintillation counter.
In the glass-fiber filter technology EGFR kinase reaction assay, a kinase substrate consisting of poly(L-glutamic acid-L-tyrosine) (poly(GT)), is incubated with the aforementioned protein in the presence of (^33P) radiolabeled ATP. (^33P) Phosporylation of the substrate is subsequently measured as radioactivity bound on a glassfiber-filter.
The EGFR kinase reaction is performed at 25° C. for 10 minutes in a 96-well microtiterplate. For each of the tested compounds a full dose response 1·10^−6M to 1·10^−10M has been performed. IRESSA° and Tarceva™ (erlotinib) were used as reference compounds. The 25 μl reaction volume contains 60 mM TrisHCl pH 7.5, 3 mM MgCl2, 3 mM Mn Cl2, 3 μM Na3VO4, 50 μg/ml PEG20000, 5.0 μM unlabeled ATP, 1 mM DTT, 0.1 μCi AT^33P, 62.5 ng/well poly(GT) and 0.5 μg EGFR-kinase domain/well.
The reaction is stopped by adding 5 μl of a 3% phosphoric acid solution. 10 μl of the reaction mixture is then spotted onto a Filtermat A filter (Wallac) and washed 3 times for 5 min. in 75 mM phosphoric acid and 1 time for 5 min. in methanol prior to drying and quantification on the Typhoon (Amersham) using a LE phosphorage storage screen.

Sequence of EGFR (P00533 712-979 limits assumed): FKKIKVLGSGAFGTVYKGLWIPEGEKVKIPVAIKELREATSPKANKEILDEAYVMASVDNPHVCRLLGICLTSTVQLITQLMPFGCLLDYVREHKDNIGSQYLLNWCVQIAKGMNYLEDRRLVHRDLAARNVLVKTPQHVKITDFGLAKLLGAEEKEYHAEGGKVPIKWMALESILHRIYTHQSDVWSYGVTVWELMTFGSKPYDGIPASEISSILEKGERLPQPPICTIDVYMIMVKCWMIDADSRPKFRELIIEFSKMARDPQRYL

Turning to `COc1cc2ncnc3c2cc1OCCCCNC(=O)C1CCCN1Cc1cc(F)c(Cl)cc1N3` (stereo not shown) [Compound 102, 4,6-ethanediylidenepyrimido[4,5-b]pyrrolo[2,1-m][6,1,11,14]benzoxatriazacycloheptadecin-13(8H)-one, 21-chloro-20-fluoro-9,10,11,12,13a,14,15,16,18,23-decahydro-24-methoxy-], the values for the IC50 in the assay on SKOV3 cells and on EGFR were 50.1 nM and 200 nM, respectively.

Regarding `COc1cc2ncnc3c2cc1OCCNC(=S)C1CCCN1Cc1cc(F)c(Cl)cc1N3` (stereo not shown) [Compound 104, 4,6-ethanediylidenepyrimido[4,5-b]pyrrolo[2,1-k][6,1,9,12]benzoxatriazacyclopentadecine-11(8H)-thione, 19-chloro-18-fluoro-9,10,11a,12,13,14,16,21-octahydro-22-methoxy-], the IC50 is 316 nM with SKOV3 cells and 1000 nM at EGFR.

Turning to `COc1cc2ncnc3c2cc1OCCCC=CCCCC(=O)NCc1ccc(Cl)cc1N3` [Compound 105, 4,6-ethanediylidenepyrimido[4,5-b][6,1,16]benzoxadiazacyclononadecin-16(17H)-one, 21-chloro-8,9,10,13,14,15,18,23-octahydro-24-methoxy-], the “SKOV3 cell (C3): pIC50” value in the assay on SKOV3 cells was 7.6. For the same molecule, the IC50 on EGFR was 158 nM.

For `COc1cc2ncnc3c2cc1OCCCC=CCCCC(=O)NCc1ccc(Cl)cc1N3` [Compound 106, 4,6-ethanediylidenepyrimido[4,5-b][6,1,16]benzoxadiazacyclononadecin-16(17H)-one, 21-chloro-8,9,10,13,14,15,18,23-octahydro-24-methoxy-], the “SKOV3 cell (C3): pIC50” value in the assay with SKOV3 cells is reported as 7.2. Besides, the IC50 on EGFR is 100 nM.

As to `COc1cc2ncnc3c2cc1OCCC=CCCCC(=O)NCc1ccc(Cl)cc1N3` [Compound 108, 4,6-ethanediylidene-8H-pyrimido[4,5-b][6,1,15]benzoxadiazacyclooctadecin-15(16H)-one, 20-chloro-9,12,13,14,17,22-hexahydro-23-methoxy-], the values for the IC50 in the assay on SKOV3 cells and on EGFR were 158 nM and 398 nM, respectively.

Consider `COc1cc2ncnc3c2cc1OCCCC=CCC(NC(=O)OC(C)(C)C)C(=O)NCc1ccc(Cl)cc1N3` (stereo not shown) [Compound 109, carbamic acid, (20-chloro-9,10,13,14,15,16,17,22-octahydro-23-methoxy-15-oxo-4,6-ethanediylidene-8H-pyrimido[4,5-b][6,1,15]benzoxadiazacyclooctadecin-14-yl)-, 1,1-dimethylethyl ester], for which the “SKOV3 cell (C3): pIC50” value in the assay on SKOV3 cells was 6.5. Besides, the IC50 at EGFR is 2000 nM.

`COc1cc2ncnc3c2cc1OCCCCCCC(NC(=O)OC(C)(C)C)C(=O)NCc1ccc(Cl)cc1N3` (stereo not shown) [Compound 111, carbamic acid, (20-chloro-9,10,11,12,13,14,15,16,17,22-decahydro-23-methoxy-15-oxo-4,6-ethanediylidene-8H-pyrimido[4,5-b][6,1,15]benzoxadiazacyclooctadecin-14-yl)-, 1,1-dimethylethyl ester]: the results for the IC50 in the assay on SKOV3 cells and on EGFR were 10000 nM and 1580 nM, respectively.

For the molecule `COc1cc2ncnc3c2cc1OCCCCCNCCN(C)Cc1ccc(Cl)cc1N3` [Compound 117, 4,6-ethanediylidene-8H-pyrimido[4,5-b][6,1,12,15]benzoxatriazacyclooctadecine, 20-chloro-9,10,11,12,13,14,15,16,17,22-decahydro-23-methoxy-16-methyl-], the figures for the IC50 in the assay on SKOV3 cells and on EGFR were 3980 nM and 200 nM, respectively.

Turning to `COc1cc2ncnc3c2cc1OCC(=O)NC(C)C(=O)NCCc1ccc(Cl)cc1N3` (stereo not shown) [Compound 119, 4,6-ethanediylidene-8H-pyrimido[4,5-b][6,1,9,12]benzoxatriazacyclohexadecine-9,12-dione, 18-chloro-10,11,13,14,15,20-hexahydro-21-methoxy-11-methyl-], the IC50 in the assay on SKOV3 cells was 1580 nM; at EGFR, 1000 nM.

Regarding `COc1cc2ncnc3c2cc1OCC(=O)NC(C)C(=O)NCc1ccc(Cl)cc1N3` (stereo not shown) [Compound 120, 4,6-ethanediylidenepyrimido[4,5-b][6,1,9,12]benzoxatriazacyclopentadecine-9,12(8H,13H)-dione, 17-chloro-10,11,14,19-tetrahydro-20-methoxy-11-methyl-], the values for the IC50 in the assay with SKOV3 cells and at EGFR were 1000 nM and 2000 nM, respectively.

On to `COc1cc2ncnc3c2cc1OCC(=O)NC(C(C)C)C(=O)NCc1ccc(Cl)cc1N3` (stereo not shown) [Compound 121, 4,6-ethanediylidenepyrimido[4,5-b][6,1,9,12]benzoxatriazacyclopentadecine-9,12(8H,13H)-dione, 17-chloro-10,11,14,19-tetrahydro-20-methoxy-11-(1-methylethyl)-], for which the results for the IC50 in the assay on SKOV3 cells and at EGFR were 10000 nM and 2510 nM, respectively.

In the case of `COc1cc2ncnc3c2cc1OCC(=O)NC(Cc1ccccc1)C(=O)NCc1ccc(Cl)cc1N3` (stereo not shown) [Compound 122, 4,6-ethanediylidenepyrimido[4,5-b][6,1,9,12]benzoxatriazacyclopentadecine-9,12(8H,13H)-dione, 17-chloro-10,11,14,19-tetrahydro-20-methoxy-11-(phenylmethyl)-], the IC50 in the assay with SKOV3 cells is 10000 nM; on EGFR, 398 nM.

`COc1cc2ncnc3c2cc1OCC(=O)NC(C)C(=O)NCc1ccccc1N3` (stereo not shown) [Compound 123, 4,6-ethanediylidenepyrimido[4,5-b][6,1,9,12]benzoxatriazacyclopentadecine-9,12(8H,13H)-dione, 10,11,14,19-tetrahydro-20-methoxy-11-methyl-]: the IC50 in the assay on SKOV3 cells was 10000 nM; on EGFR, 6310 nM.

On to `COc1cc2ncnc3c2cc1OCC(=O)N1CCCC1C(=O)NCc1ccccc1N3` (stereo not shown) [Compound 125, 9,11-ethanediylidenepyrimido[4,5-b]pyrrolo[1,2-i][6,1,9,12]benzoxatriazacyclopentadecine-14,19(5H,13H)-dione, 16,17,18,18a,20,21-hexahydro-22-methoxy-], for which the IC50 with SKOV3 cells was 10000 nM; on EGFR, 7940 nM.

For the molecule `COc1cc2ncnc3c2cc1OCC(=O)N1CCCC1C(=O)NCc1ccc(Cl)cc1N3` (stereo not shown) [Compound 126, 9,11-ethanediylidenepyrimido[4,5-b]pyrrolo[1,2-i][6,1,9,12]benzoxatriazacyclopentadecine-14,19(5H,13H)-dione, 3-chloro-16,17,18,18a,20,21-hexahydro-22-methoxy-], the results for the IC50 in the assay with SKOV3 cells and at EGFR were 2510 nM and 2000 nM, respectively.

For the molecule `COc1cc2ncnc3c2cc1OCC(=O)NC(C(C)O)C(=O)NCc1ccc(Cl)cc1N3` (stereo not shown) [Compound 127, 4,6-ethanediylidenepyrimido[4,5-b][6,1,9,12]benzoxatriazacyclopentadecine-9,12(8H,13H)-dione, 17-chloro-10,11,14,19-tetrahydro-11-(1-hydroxyethyl)-20-methoxy-], the IC50 is 1580 nM with SKOV3 cells and 251 nM on EGFR.

Regarding `CCC(C)C1NC(=O)CCCOc2cc3c(ncnc3cc2OC)Nc2cc(Cl)ccc2CNC1=O` (stereo not shown) [Compound 128, 4,6-ethanediylidenepyrimido[4,5-b][6,1,11,14]benzoxatriazacycloheptadecine-11,14(8H,15H)-dione, 19-chloro-9,10,12,13,16,21-hexahydro-22-methoxy-13-(1-methylpropyl)-], the IC50 was 200 nM in the assay with SKOV3 cells and 10 nM on EGFR.
